# Experimental data: EP0408806A1, “Antihypercholesterolemic agents” (MERCK & CO. INC., priority 1989, dated 1991)
# Biological target: T1, HMG-CoA reductase (Rattus norvegicus, UniProt P51639)
# T1 sequence (P51639 1-887): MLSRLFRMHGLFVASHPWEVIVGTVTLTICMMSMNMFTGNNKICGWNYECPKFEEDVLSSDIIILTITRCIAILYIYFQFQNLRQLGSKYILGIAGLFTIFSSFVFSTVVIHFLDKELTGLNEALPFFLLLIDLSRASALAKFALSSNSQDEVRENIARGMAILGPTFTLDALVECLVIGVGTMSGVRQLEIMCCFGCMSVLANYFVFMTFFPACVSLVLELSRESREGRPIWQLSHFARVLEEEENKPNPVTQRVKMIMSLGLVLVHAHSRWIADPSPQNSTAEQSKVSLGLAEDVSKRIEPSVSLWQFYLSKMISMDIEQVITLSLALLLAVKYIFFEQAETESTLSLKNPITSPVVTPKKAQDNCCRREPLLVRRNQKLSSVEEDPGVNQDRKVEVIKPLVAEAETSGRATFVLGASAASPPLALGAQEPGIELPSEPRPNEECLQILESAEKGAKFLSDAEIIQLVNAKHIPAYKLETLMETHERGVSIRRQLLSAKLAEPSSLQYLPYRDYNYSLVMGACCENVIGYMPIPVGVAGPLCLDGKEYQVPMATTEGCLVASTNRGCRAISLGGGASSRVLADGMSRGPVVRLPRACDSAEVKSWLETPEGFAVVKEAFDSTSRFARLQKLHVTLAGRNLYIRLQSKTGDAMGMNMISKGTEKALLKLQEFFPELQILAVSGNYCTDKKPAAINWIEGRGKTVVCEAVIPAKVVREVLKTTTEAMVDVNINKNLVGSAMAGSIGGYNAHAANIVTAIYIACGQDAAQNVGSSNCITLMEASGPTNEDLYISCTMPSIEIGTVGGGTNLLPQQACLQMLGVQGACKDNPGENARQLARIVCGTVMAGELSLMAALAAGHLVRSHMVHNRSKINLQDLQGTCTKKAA
# Assay: intrinsic HMG-CoA reductase inhibition, in vitro protocol published in J. Med. Chem., 28, p. 347-358 (1985)
# Format: biochemical
# Conditions: read-out: IC₅₀ value (converted)
# Protocol: The intrinsic HMG-CoA reductase inhibition activity of the claimed compounds is measured in the in vitro protocol published in J. Med. Chem., 28, p. 347-358 (1985).
smiles,measurement,value
"CCC(C)(C)C(=O)OC1CC(C)=CC2=CC(=O)C(C)C(CCC3CC(O)CC(=O)O3)C21 [6(R)-[2-[8(S)-(2,2-dimethylbutyryloxy)-2(S),6-dimethyl-3-oxo-1,2,7,8,8a(R)-pentahydronaphthyl-1(S)]ethyl]-4(R)-hydroxy-3,4,5,6-tetrahydro-2H-pyran-2-one]",IC50,4.62 nM
